Columns and labels:
APP = test: rate of APP synthesis in SH-SY5Y cells (35S labelling, immunoprecipitation); format: cell-based, human; conditions: 10 μM, 16 hours
Description: 8×10^6 SHSY-5Y cells were plated on 100 mm dishes with DMEM containing 10% FBS. After 36 hours, the culture medium was replaced with DMEM containing 0.5% FBS. The cells were incubated with low serum medium for 1 hour. Thereafter, the medium was replaced with fresh low serum medium with and without 10 μM of phenserine for 16 hours.
After treatment with methionine and cystine free medium, 2 ml of ^35S-labeled DMEM ([…]) with and without phenserine (10 μM) were added and incubated for 10 minutes. Thereafter, the labeled medium was carefully removed and the cells were suspended in lysis buffer containing with protease inhibitors and frozen at −80° C. for use in the immunoprecipitation assay.
APP protein was immunoprecipitated from 300 μig of total protein in each sample using the polyclonal antibody O443, which recognizes a 20 amino acid sequence in the carboxy terminal of APP, and protein A/G resin overnight at 4° C. Immunoprecipitated APP was eluted from the protein AJG resin with 30 μl of elution buffer (10% beta-mercaptoethanol). The samples were loaded onto 10% trys-glycine 10 gels, and the proteins were separated at 150 V for 90 min. The gels were fixed and dried at 80° C. for 60 min. The dried gels were exposed to Phosphor Screen (PACKARD Instrument Company, Inc., Meriden, Conn.) overnight and the βAPP signals were quantitated on a phosphor imager. […]

[1] = in vivo toxicity, i.p. administration to rodents
Description: This persisted for an hour and is related to central cholinergic overdrive. […] Animals were incapacitated at 20 mg/kg (N=3 per dose group), and 2 were killed when moribund.

Aβ1-42 = Aβ1-42 levels in cerebral cortex of transgenic mice, ELISA; format: in vivo; conditions: formic acid extraction, 3 weeks daily
Description: (§1) Greater reductions could be achieved, but, as previously reported, doses of >5 mg/kg produce cholinergic side effects for the (−)-enantiomer but not for the (+)-enantiomer.
(§2) Samples of cerebral cortex from the transgenic mice then were analyzed for β amyloid peptide (Aβ) levels. Specifically, Aβ1-40 and Aβ1-42 levels, following formic acid extraction, were determined by ELISA assay (Suzuki et al., 1994).

SK-N-SH cells = test: LDH assay / cell number and viability, SK-N-SH cells; format: cell-based, human
Source text: Measurement of released lactate dehydrogenase (LDH) in the conditioned medium was undertaken as a marker of cell viability and integrity, as described previously (Lahiri et al., 1997 and 1998).
This was not associated with cellular dysfunction, as determined by measurement of LDH levels versus untreated controls (FIG. 4C).

Aβ1-40 = Aβ1-40 levels in cerebral cortex of transgenic mice, ELISA; format: in vivo; conditions: formic acid extraction, 3 weeks daily
Description: as §1, §2

CN1CC[C@@]2(C)c3cc(OC(=O)Nc4ccccc4)ccc3N(C)[C@@H]12 [(−)-phenserine]
reduction of βAPP synthesis (APP): 52% | clinical signs ([1]; 5 mg/kg): a fine tremor is observed | clinical signs ([1]; 7.5 mg/kg): Tremor together with symptoms of peripheral cholinergic overdrive | duration of tremor and peripheral cholinergic symptoms ([1]; 7.5 mg/kg): ~3 h | clinical signs ([1]; 20 mg/kg): incapacitated | reduction of Aβ1-42 levels (Aβ1-42): 53% | LDH levels in media (SK-N-SH cells; SK-N-SH, 50 μM, up to 16 hours): no significant difference between treated and untreated levels | toxicity as assessed by an LDH assay (SK-N-SH cells; SK-N-SH, 0.5, 5 or 50 μM, 16 hours): no significant toxicity | reduction of Aβ1-40 levels (Aβ1-40): 68%

Reference: patent US8691864B2, “Agents useful for reducing amyloid precursor protein and treating dementia and methods of use thereof” (priority 2000, dated 2014)
